The subject of series [1] is Enterobacter cloacae. Kind of series: Effect on growth of Enterobacter cloacae isolate 4 after 24 hrs by broth microdilution assay. The format is organism-based.
The test system of series [2] is Stenotrophomonas maltophilia. Briefly: Potency index, ratio of EDTA IC50 to test compound IC50 for Stenotrophomonas maltophilia NDM1 expressed in Escherichia coli BL21 (DE3) expressing measured after 15 minutes at interval of 60s.
Series [3] deals with T1, Metallo-beta-lactamase NDM-4 (Escherichia coli) (UniProt H6WZS9).
T1 sequence (whole entry): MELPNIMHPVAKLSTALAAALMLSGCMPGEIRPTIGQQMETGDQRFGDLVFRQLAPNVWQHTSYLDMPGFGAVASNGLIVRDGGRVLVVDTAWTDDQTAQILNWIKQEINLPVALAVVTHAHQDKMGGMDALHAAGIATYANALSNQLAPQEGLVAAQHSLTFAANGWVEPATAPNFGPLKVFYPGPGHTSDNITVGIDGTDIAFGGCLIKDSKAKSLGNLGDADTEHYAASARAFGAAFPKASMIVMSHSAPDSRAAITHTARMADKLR
Kind of series: Inhibition of Escherichia coli NDM4 assessed as potentiation of meropenem-induced antibacterial activity by measuring bacterial growth rate at 64 ug/mL after 24 hrs in presence of ZnCl2 by broth microdilution method relative to control. A general note: In broth dilution the organism is exposed to a series of concentrations in liquid medium.

Series [4] relates to Enterobacter cloacae. Briefly: Inhibition of IMP4 in Enterobacter cloacae clinical isolate 15 assessed as potentiation of meropenem-induced antibacterial activity by measuring reduction in meropenem MIC after 24 hrs by broth microdilution method (reference value: 32 ug/ml).
Series [5] relates to Escherichia coli. Kind of series: Effect on growth of Escherichia coli isolate 14 after 24 hrs by broth microdilution method. Type of series: organism-based.
Series [6] has as its system Escherichia coli. Kind of series: Inhibition of NDM1 in Escherichia coli isolate 1 assessed as potentiation of meropenem-induced antibacterial activity by measuring meropenem MIC after 24 hrs by broth microdilution assay (reference value: 1280 ug/ml).
A short description of series [7]: Cytotoxicity against human HeLa cells assessed as inhibition of growth at 1000 ug/mL after 24 hrs by CCK8 assay relative to control. Type of series: cell-based. The settings on record: read-out: GI. A general note: Formazan colour is commonly taken as a measure of viable cells.
The test system of series [8] is Enterobacter cloacae. Kind of series: Effect on growth of Enterobacter cloacae isolate 16 after 24 hrs by broth microdilution method. The format is organism-based.
In series [9] the test system is Enterobacter cloacae. Briefly: Inhibition of IMP4 in Enterobacter cloacae isolate 16 assessed as potentiation of meropenem-induced antibacterial activity by measuring meropenem MIC after 24 hrs by broth microdilution method (reference value: 64 ug/ml).
The test system of series [10] is Escherichia coli. Briefly: Effect on growth of Escherichia coli isolate 3 after 24 hrs by broth microdilution assay. The format is organism-based.
For series [11], the system named is HeLa. Briefly: Cytotoxicity against human HeLa cells at 64 ug/mL after 24 hrs by calcein AM/propidium iodide staining based fluorescence microscopic method. The format is cell-based.
In series [12] the test system is Enterobacter cloacae. Briefly: Effect on growth of Enterobacter cloacae isolate 6 after 24 hrs by broth microdilution assay. Type of series: organism-based.
Series [13] has as its system Klebsiella pneumoniae. Briefly: Effect on growth of Klebsiella pneumoniae isolate 10 after 24 hrs by broth microdilution method. Type of series: organism-based.
The test system of the next series is Proteus mirabilis. Kind of series: Effect on growth of Proteus mirabilis isolate 19 after 24 hrs by broth microdilution method. Type of series: organism-based.
The target in series [14] is T1, Metallo-beta-lactamase NDM-4 (Escherichia coli). Briefly: Inhibition of NDM4 in Escherichia coli isolate 3 assessed as potentiation of meropenem-induced antibacterial activity by measuring meropenem MIC after 24 hrs by broth microdilution assay (reference value: 1280 ug/ml).
Series [15] deals with Escherichia coli. Briefly: Effect on growth of Escherichia coli isolate 1 after 24 hrs by broth microdilution assay. Type of series: organism-based.
The subject of series [16] is Escherichia coli. Briefly: Effect on growth of Escherichia coli isolate 8 after 24 hrs by broth microdilution assay. Type of series: organism-based.
The target in series [17] is T1, Metallo-beta-lactamase NDM-4 (Escherichia coli). Kind of series: Inhibition of NDM4 in Escherichia coli ATCC 25922 assessed as potentiation of meropenem-induced antibacterial activity by measuring diameter of inhibition zone measured after 18 hrs by agar disk diffusion method. (In general: In agar diffusion tests the substance spreads into inoculated agar from a disc or well.)

Series [18] relates to Enterobacter cloacae. Kind of series: Inhibition of NDM1 in Enterobacter cloacae isolate 4 assessed as potentiation of meropenem-induced antibacterial activity by measuring meropenem MIC after 24 hrs by broth microdilution assay (reference value: 640 ug/ml).
Series [19] can be described thus: Non-competitive inhibition of bacterial NDM1 (G28 to R270 residues) expressed in Escherichia coli BL21 (DE3) using varying levels of MEPM as substrate preincubated for 15 mins followed by substrate addition measured at 60 secs interval up to 60 mins by Lineweaver-Burk plot analysis. Also on record: species or system Bacteria.
Series [20] has as its system Escherichia coli. Kind of series: Inhibition of NDM-7 in Escherichia coli isolate 2 assessed as potentiation of meropenem-induced antibacterial activity by measuring meropenem MIC after 24 hrs by broth microdilution assay (reference value: 640 ug/ml).
Series [21] deals with Klebsiella pneumoniae. Briefly: Inhibition of IMP4 in Klebsiella pneumoniae isolate 17 assessed as potentiation of meropenem-induced antibacterial activity by measuring meropenem MIC after 24 hrs by broth microdilution method (reference value: 32 ug/ml).
Series [22] addresses T1, Metallo-beta-lactamase NDM-4 (Escherichia coli). Kind of series: Inhibition of NDM4 in Escherichia coli isolate 3 assessed as potentiation of meropenem-induced bactericidal activity by measuring bacterial killing in early exponential phase at 64 ug/ml incubated for 24 hrs followed by replating on agar plates for 16 to 18 hrs and measured up to 24 hrs by time kill assay. The settings on record: TDE = time-dependent effect.

Series [23] has the same target. Briefly: Inhibition of NDM4 in Escherichia coli isolate 3 assessed as potentiation of meropenem-induced bactericidal activity by measuring log reduction in bacterial colonies at 64 ug/ml incubated for 24 hrs followed by replating on agar plates for 16 to 18 hrs and measured up to 24 hrs by time kill assay.
For series [24] the target is unchanged. Briefly: Inhibition of NDM4 in Escherichia coli isolate 3 assessed as potentiation of meropenem-induced bactericidal activity by measuring bacterial killing at 64 ug/ml incubated for 24 hrs followed by replating on agar plates for 16 to 18 hrs and measured up to 24 hrs by time kill assay relative to control.
Series [25] relates to HeLa. Briefly: Cytotoxicity against human HeLa cells at 128 ug/mL after 24 hrs by calcein AM/propidium iodide staining based fluorescence microscopic method. Type of series: cell-based.
The nature of series [26]: Competitive inhibition of bacterial NDM1 (G28 to R270 residues) expressed in Escherichia coli BL21 (DE3) using varying levels of MEPM as substrate preincubated for 15 mins followed by substrate addition measured at 60 secs interval up to 60 mins by Lineweaver-Burk plot analysis. Also on record: species or system Bacteria.

Values after ≈ are worked out from the molar mass of the structure shown.

As usually defined, the Ki is a dissociation constant, usually derived from enzyme kinetics or from competition with a known ligand. A low value points to tighter binding. On to `COc1ccc(CN(CCN(Cc2ccc(OC)cc2)Cc2cccc(C(=O)O)n2)Cc2cccc(C(=O)O)n2)cc1`, for which the MIC is 64 µg/mL (≈ 112 µM) in the series on Enterobacter cloacae [1]; 32 µg/mL (≈ 56.1 µM) with Escherichia coli [5]; 0.125 µg/mL with Escherichia coli [6]; 32 µg/mL (≈ 56.1 µM) in the series with Enterobacter cloacae [8]; 2 µg/mL in the series on Enterobacter cloacae [9]; 64 µg/mL (≈ 112 µM) with Escherichia coli [10]. For the same molecule, the MIC against Enterobacter cloacae [12] is 32 µg/mL (≈ 56.1 µM); against Klebsiella pneumoniae [13] it was 64 µg/mL (≈ 112 µM); in the series on Proteus mirabilis, 32 µg/mL (≈ 56.1 µM); in series [14], below 0.0312 µg/mL; against Escherichia coli [15] it was 32 µg/mL (≈ 56.1 µM); in the series on Escherichia coli [16] it was 64 µg/mL (≈ 112 µM). For the same molecule, the values for the MIC in the series on Enterobacter cloacae [18], in the series on Escherichia coli [20] and in the series with Klebsiella pneumoniae [21] were 0.0625 µg/mL, 0.0625 µg/mL and 8 µg/mL, respectively. In addition, the Ratio IC50 in [2] was found to be 200. Besides, the values for the inhibition in series [3] and in series [22] were 81% and “Tde”, respectively. Besides, in the series on Enterobacter cloacae [4], the fold change (FC) worked out at 64. The inhibition at 24 h, 1000 ug/mL in series [7] was below 50%. Besides, the Activity entry with HeLa [11] is reported as “Non-Toxic”. The inhibition zone (IZ) in [17] lay in the range of 2 to 5 mm. This molecule had a Ki in [19] of 144 nM.

With `O=C(O)c1cccc(CNCCNCc2cccc(C(=O)O)n2)n1`, the MIC stood at 64 µg/mL (≈ 194 µM) against Enterobacter cloacae [1]; 32 µg/mL (≈ 96.9 µM) against Escherichia coli [5]; 0.125 µg/mL in the series with Escherichia coli [6]; 32 µg/mL (≈ 96.9 µM) with Enterobacter cloacae [8]; 2 µg/mL in the series on Enterobacter cloacae [9]; 32 µg/mL (≈ 96.9 µM) in the series on Escherichia coli [10]. The MIC is 32 µg/mL (≈ 96.9 µM) with Enterobacter cloacae [12]; 64 µg/mL (≈ 194 µM) against Klebsiella pneumoniae [13]; 32 µg/mL (≈ 96.9 µM) with Proteus mirabilis; below 0.0312 µg/mL in [14]; 32 µg/mL (≈ 96.9 µM) in the series with Escherichia coli [15]; 64 µg/mL (≈ 194 µM) with Escherichia coli [16]. The MIC in the series with Enterobacter cloacae [18] amounted to 0.25 µg/mL; with Escherichia coli [20] it was 0.125 µg/mL; in the series with Klebsiella pneumoniae [21] it was 8 µg/mL. Moreover, the results for the inhibition in series [3], in series [24] and in series [22] were 81%, 99.9% and “Tde”, respectively. Besides, in the series with Enterobacter cloacae [4], the fold change (FC) worked out at 64. Besides, in [23], the FC was 3. In addition, the inhibition at 24 h, 1000 ug/mL in series [7] was below 50%. Further, the Activity result in the series on HeLa [25] is “Non-Toxic”. Moreover, the inhibition zone (IZ) in series [17] is 2 to 5 mm. In addition, the inhibitory constant (Ki) in series [26] was determined as 680 nM.

Values taken from ChEMBL document CHEMBL4387701, “H2depda: An acyclic adjuvant potentiates meropenem activity in vitro against metallo-β-lactamase-producing enterobacterales” (Eur J Med Chem, 2019).
